Assay results from patent US10508092B2, “Synthesis of novel analogs of diptoindonesin G, compounds formed thereby, and pharmaceutical compositions containing them” (Wisconsin Alumni Research Foundation, priority 2016, dated 2019).
“And” between values parts separate entries of the source, which are not always exact repeats. Identical values can stand only once.

Key:
[1] = Pharmacokinetics (plasma concentration by HPLC and LC/MS) in mice; assay type: in vivo; conditions: mouse
[2] = tested on: T47D xenograft tumor; experiment: T47D xenograft tumor growth in mice, intra-tumoral dosing; assay type: in vivo, mouse
Method: Dip G inhibited growth of T47D xenograft tumor in vivo. Dip G was synthesized as described and formulated for the in vivo treatment. Dip G was prepared by dissolving the stock powder in 100% DMSO to a final concentration of 50 mg/ml. This stock solution was then diluted 1:5 into a 40% polyethylene glycol (PEG300)/40% normal saline (0.9% NaCl) solution to a final concentration of 20% Dip G solution. The maximum tolerated dose (MTD) of Dip G was determined to be 50 mg/kg by oral and 20 mg/kg by retro-orbital injection in mouse models. To determine MTD, escalating doses of Dip G dissolved in the aforementioned formulation were injected retro-orbitally or by oral gavage daily, five days out of seven to determine the MTD. […] (Data not shown.) Dip G was intra-tumorally delivered to ERα-positive T47D xenografted mice three times a week and the tumors were monitored for three weeks. […] Control-treated tumors were 70% of original size, while tumors (n=16) treated with Dip G were 46% of original size (FIG. 3). Under these treatment conditions, some Dip G-treated tumors completely regressed. […] (AST ELISAs are available commercially from several suppliers, including Abcam, Cambridge, Mass.)
Diptoindonesin G (Dip G) was obtained from the small molecule screening facility. Dip G was prepared by dissolving the stock powder in 100% DMSO to a final concentration of 50 mg/mL. This stock solution was then diluted 1:5 into a 40% polyethylene glycol (PEG 300)/40% normal saline (0.9% NaCl) solution to a final concentration of 20% Dip G solution. Vehicle was prepared identically, substituting DMSO instead of Dip G solution. PEG and saline were filtered at […] prior to use to ensure sterility.
Twelve Foxn1-nu homozygous mice were obtained from The Jackson Laboratory (Bar Harbor, Me.). Mice were randomized to control or active treatment prior to estrogen pellet placement. After allowing time for acclimatization, estrogen pellets were surgically inserted into the test mice, subcutaneously on the back. The skin at the site of surgery was prepared by washing with povidone iodine, allowing a three-minute contact time. Surgery was performed in a laminar flow hood while mice were under anesthesia. Incisions of less than 1 cm were made low in the back using a short scissors. Slow-release estrogen pellets (0.05 mg/60 day release) were implanted in each incision. Wounds were sealed with “VETBOND”®-brand surgical adhesive (3M Company, St. Paul, Minn.). At the same time, the mice were injected with 10^7 T-47D cells (ATCC HTB-133) twice, once in each mammary fat pad underneath the leg with 100 uL of fluid per injection site, using 25G needles.
Mice were monitored twice weekly for weight changes and tumor growth (measured in diameter and volume) with calipers. Following tumors reaching an appropriate size (˜5 mm in diameter, taking approximately 3 months after grafting), intra-tumoral injections were begun with vehicle containing 20 mg/kg of Dip G or control vehicle in a total volume of 50 μL split between tumors on each mammary fat pad. Three mice (6 tumors) received control injections and eight (16 tumors) received Dip G. Injections were administered 3 times per week with at least one day of rest between injections, for a total of 10-12 injections. Cohorts were sacrificed by cage individually in numerical order, beginning with the 10th injection and sacrificing one cage per injection for pharmacokinetic time points from that injection onward. In mice with very small tumors, dosing was switched from intra-tumoral to subcutaneous at later time points.

[3] = individual tumor, 20 mg/kg intra-tumoral 3 times per week, 20 mg/kg

In the case of `O=C1c2c(O)cc(O)cc2-c2c(-c3ccc(O)cc3)oc3cc(O)cc1c23` [Dip G, diptoindonesin G], the half-life [1] is reported as 1 h, the “tumor size as % of original size” value ([2]; T47D xenograft, 20 mg/kg intra-tumoral 3 times per week, 21 days, n=16 tumors, control 70%) is reported as 46% and the “responders (tumors decreasing by 50% or more)” value ([2]; T47D xenograft, 12 of 16 tumors, control 17%, p=0.023) is reported as 75%. For the same molecule, the xenografted tumor growth ([2]; T47D xenograft, 21 days, versus vehicle-treated controls) was “strongly inhibited”, the “decrease in tumor volume” value ([2]; T47D xenograft, at study completion, n=16 tumors, control 30%) was 54% and the “Tumor Volumes, Day 3” value [2, 3] was 113.1 mm^3 and 29.8 mm^3 and 71.4 mm^3 and 25.7 mm^3 and 69.6 mm^3 and 17.2 mm^3 and 126.0 mm^3 and 79.8 mm^3 and 144.9 mm^3 and 40.7 mm^3 and 43.3 mm^3 and 70.7 mm^3 and 30.8 mm^3 and 15.1 mm^3 and 149.4 mm^3 and 68.9 mm^3. The “Tumor Volumes, Day 5” value [2, 3] was 100.0 mm^3 and 34.7 mm^3 (2×) and 36.0 mm^3 and 58.8 mm^3 (2×) and 23.1 mm^3 and 108.0 mm^3 and 84.7 mm^3 and 152.5 mm^3 and 51.6 mm^3 and 44.0 mm^3 and 36.1 mm^3 and 18.9 mm^3 and 111.6 mm^3 and 87.7 mm^3, the “Tumor Volumes, Day 8” value [2, 3] was 74.1 mm^3 and 20.0 mm^3 and 26.0 mm^3 and 14.5 mm^3 and 52.9 mm^3 and 14.0 mm^3 and 65.0 mm^3 and 55.0 mm^3 and 99.1 mm^3 and 32.8 mm^3 and 46.6 mm^3 and 55.2 mm^3 and 20.7 mm^3 and 21.8 mm^3 and 43.6 mm^3 and 40.3 mm^3 and the “Tumor Volumes, Day 10” value [2, 3] was 106.2 mm^3 and 73.0 mm^3 and 39.2 mm^3 and 37.6 mm^3 and 64.8 mm^3 and 28.1 mm^3 and 105.6 mm^3 and 95.3 mm^3 and 123.0 mm^3 and 49.0 mm^3 and 56.1 mm^3 and 58.2 mm^3 and 32.9 mm^3 and 44.5 mm^3 and 63.6 mm^3 and 67.7 mm^3. For the same molecule, the “Tumor Volumes, Day 12” value [2, 3] was 225.3 mm^3 and 33.6 mm^3 and 34.5 mm^3 and 18.5 mm^3 and 77.2 mm^3 and 13.9 mm^3 and 123.6 mm^3 and 0.5 mm^3 (2×) and 97.7 mm^3 and 48.7 mm^3 and 49.0 mm^3 and 63.6 mm^3 and 29.4 mm^3 and 23.1 mm^3 and 189.2 mm^3, the “Tumor Volumes, Day 15” value [2, 3] was 81.6 mm^3 and 41.6 mm^3 and 35.3 mm^3 and 32.0 mm^3 and 78.0 mm^3 and 19.7 mm^3 and 72.5 mm^3 and 37.0 mm^3 and 62.5 mm^3 and 22.9 mm^3 and 35.4 mm^3 and 53.0 mm^3 and 22.0 mm^3 and 20.1 mm^3 and 92.5 mm^3 and 49.6 mm^3 and the “Tumor Volumes, Day 19” value [2, 3] was 91.9 mm^3 and 38.8 mm^3 and 12.0 mm^3 and 19.7 mm^3 and 45.6 mm^3 and 11.5 mm^3 and 58.8 mm^3 and 28.7 mm^3 and 90.9 mm^3 and 15.6 mm^3 and 24.6 mm^3 and 35.7 mm^3 (2×) and 14.9 mm^3 and 9.3 mm^3 and 58.2 mm^3. The “Tumor Volumes, Day 23” value [2, 3] was 0.5 mm^3 and 12.2 mm^3 and 9.1 mm^3 and 29.7 mm^3 and 81.5 mm^3 and 10.3 mm^3 and 51.9 mm^3 and 13.1 mm^3 and 7.9 mm^3 and 9.5 mm^3 and 28.1 mm^3 and 29.8 mm^3 and 18.5 mm^3 and 10.1 mm^3 and 34.2 mm^3 and 14.9 mm^3 and the “Tumor Volumes, Day 0” value ([2]; individual tumor, baseline, T47D xenograft) was 75.1 mm^3 and 40.3 mm^3 and 39.7 mm^3 and 71.3 mm^3 (2×) and 50.8 mm^3 and 25.4 mm^3 and 80.2 mm^3 (2×) and 96.2 mm^3 and 24.9 mm^3 and 70.2 mm^3 and 29.6 mm^3 and 23.1 mm^3 and 47.1 mm^3 and 52.9 mm^3.
